Our source for the IC50 values is patent publication US7781591B2, “Substituted 3-cyanopyridines as protein kinase inhibitors” (Wyeth LLC, priority 2006, dated 2010).

Usually IC50 stands for the point on the concentration scale where inhibition reaches its midpoint.

Like-named read-outs stand apart in the source and are kept apart here.

The target in the experiment is T1, human PKCθ full length enzyme (Homo sapiens, UniProt Q04759).
T1 construct: human PKCθ full length enzyme (Panvera Cat# P2996); purchased Panvera P2996
T1 sequence (Q04759 whole entry): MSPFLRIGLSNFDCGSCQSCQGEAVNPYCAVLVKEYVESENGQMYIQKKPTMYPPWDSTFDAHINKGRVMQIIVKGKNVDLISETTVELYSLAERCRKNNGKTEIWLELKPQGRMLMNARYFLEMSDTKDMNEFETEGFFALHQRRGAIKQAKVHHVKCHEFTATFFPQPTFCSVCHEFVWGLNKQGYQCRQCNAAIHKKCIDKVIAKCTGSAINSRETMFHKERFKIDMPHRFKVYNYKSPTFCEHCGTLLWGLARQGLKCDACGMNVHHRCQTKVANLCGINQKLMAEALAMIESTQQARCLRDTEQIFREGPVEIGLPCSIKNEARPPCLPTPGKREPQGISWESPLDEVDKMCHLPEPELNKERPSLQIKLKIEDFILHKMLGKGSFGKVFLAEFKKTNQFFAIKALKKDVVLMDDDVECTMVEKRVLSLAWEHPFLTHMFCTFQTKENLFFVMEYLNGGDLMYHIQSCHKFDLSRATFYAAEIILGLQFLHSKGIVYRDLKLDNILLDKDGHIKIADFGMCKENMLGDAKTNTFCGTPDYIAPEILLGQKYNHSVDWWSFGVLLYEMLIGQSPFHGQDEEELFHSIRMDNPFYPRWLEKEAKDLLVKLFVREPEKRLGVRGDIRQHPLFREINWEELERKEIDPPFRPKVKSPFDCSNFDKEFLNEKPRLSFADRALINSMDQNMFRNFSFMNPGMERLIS
Briefly: PKCθ IMAP assay (fluorescence polarization). Type of experiment: biochemical. (In general: Polarisation of emitted light reports the rotation of a fluorescent probe.)

Where [1] appears, read: human PKCθ full length enzyme, IMAP, average value, read-out: IC50 PKCθ IMAP.

Turning to `Cc1c(Nc2c(C#N)cncc2-c2ccc(Br)cc2F)ccc2[nH]ccc12` [Compound 381, 5-(4-bromo-2-fluorophenyl)-4-[(4-methyl-1H-indol-5-yl)amino]nicotinonitrile], the IC50 under setting [1] is 20 nM.

With `Cc1c(Nc2c(C#N)cncc2-c2cc3cc(CN(C)C)ccc3o2)ccc2[nH]ccc12` [Compound 382, 5-{5-[(dimethylamino)methyl]-1-benzofuran-2-yl}-4-[(4-methyl-1H-indol-5-yl)amino]nicotinonitrile], the IC50 under setting [1] was 6 nM.

Turning to `Cc1c(Nc2c(C#N)cncc2-c2cc3cc(CNCCO)ccc3o2)ccc2[nH]ccc12` [Compound 383, 5-(5-{[(2-hydroxyethyl)amino]methyl}-1-benzofuran-2-yl)-4-[(4-methyl-1H-indol-5-yl)amino]nicotinonitrile], under setting [1], the IC50 came out at 2 nM.

Take `Cc1c(Nc2c(C#N)cncc2-c2cc3cc(CNCCCO)ccc3o2)ccc2[nH]ccc12` [Compound 384, 5-(5-{[(3-hydroxypropyl)amino]methyl}-1-benzofuran-2-yl)-4-[(4-methyl-1H-indol-5-yl)amino]nicotinonitrile]: under setting [1], the IC50 worked out at 2 nM.

As for `Cc1c(Nc2c(C#N)cncc2-c2cc3cc(CNCC(O)CO)ccc3o2)ccc2[nH]ccc12` (stereo not shown) [Compound 385, 5-(5-{[(2,3-dihydroxypropyl)amino]methyl}-1-benzofuran-2-yl)-4-[(4-methyl-1H-indol-5-yl)amino]nicotinonitrile], the IC50 under setting [1] was found to be 2 nM.

For `Cc1c(Nc2c(C#N)cncc2-c2cc3cc(CN(C)CC(O)CO)ccc3o2)ccc2[nH]ccc12` (stereo not shown) [Compound 386, 5-(5-{[(2,3-dihydroxypropyl)(methyl)amino]methyl}-1-benzofuran-2-yl)-4-[(4-methyl-1H-indol-5-yl)amino]nicotinonitrile], under setting [1], the IC50 came out at 5 nM.

For the molecule `Cc1c(Nc2c(C#N)cncc2-c2cc3cc(CN4CCOCC4)ccc3o2)ccc2[nH]ccc12` [Compound 388, 4-[(4-methyl-1H-indol-5-yl)amino]-5-[5-(morpholin-4-ylmethyl)-1-benzofuran-2-yl]nicotinonitrile], the IC50 under setting [1] amounted to 13 nM.

As for `Cc1c(Nc2c(C#N)cncc2-c2cc3cc(CN4CCCC4)ccc3o2)ccc2[nH]ccc12` [Compound 389, 4-[(4-methyl-1H-indol-5-yl)amino]-5-[5-(pyrrolidin-1-ylmethyl)-1-benzofuran-2-yl]nicotinonitrile], under setting [1], the IC50 was determined as 3 nM.

In the case of `Cc1c(Nc2c(C#N)cncc2-c2cc3cc(CNCCN4CCCC4)ccc3o2)ccc2[nH]ccc12` [Compound 390, 4-[(4-methyl-1H-indol-5-yl)amino]-5-(5-{[(2-pyrrolidin-1-ylethyl)amino]methyl}-1-benzofuran-2-yl)nicotinonitrile], the IC50 under setting [1] amounted to 1 nM.

Regarding `Cc1c(Nc2c(C#N)cncc2-c2cc3cc(CNCC4CCN(C)CC4)ccc3o2)ccc2[nH]ccc12` [Compound 391, 4-[(4-methyl-1H-indol-5-yl)amino]-5-[5-({[(1-methylpiperidin-4-yl)methyl]amino}methyl)-1-benzofuran-2-yl]nicotinonitrile], the IC50 under setting [1] was 1 nM.

On to `Cc1c(Nc2c(C#N)cncc2-c2cc3cc(CN4CCC(CO)CC4)ccc3o2)ccc2[nH]ccc12` [Compound 392, 5-(5-{[4-(hydroxymethyl)piperidin-1-yl]methyl}-1-benzofuran-2-yl)-4-[(4-methyl-1H-indol-5-yl)amino]nicotinonitrile], for which the IC50 under setting [1] came to 5 nM.

Regarding `Cc1c(Nc2c(C#N)cncc2-c2cc3cc(CN4CCC(N5CCCC5)CC4)ccc3o2)ccc2[nH]ccc12` [Compound 393, 4-[(4-methyl-1H-indol-5-yl)amino]-5-{5-[(4-pyrrolidin-1-ylpiperidin-1-yl)methyl]-1-benzofuran-2-yl}nicotinonitrile], the IC50 under setting [1] amounted to 1 nM.

In the case of `Cc1c(Nc2c(C#N)cncc2-c2cc3cc(CN4CCC(N5CCCCC5)CC4)ccc3o2)ccc2[nH]ccc12` [Compound 394, 5-[5-(1,4′-bipiperidin-1′-ylmethyl)-1-benzofuran-2-yl]-4-[(4-methyl-1H-indol-5-yl)amino]nicotinonitrile], the IC50 under setting [1] is 1 nM.

Take `Cc1c(Nc2c(C#N)cncc2-c2cc3cc(CN4CCC(N5CCOCC5)CC4)ccc3o2)ccc2[nH]ccc12` [Compound 395, 4-[(4-methyl-1H-indol-5-yl)amino]-5-{5-[(4-morpholin-4-ylpiperidin-1-yl)methyl]-1-benzofuran-2-yl}nicotinonitrile]: the half-inhibitory concentration (IC50) under setting [1] is 4 nM.

For the molecule `Cc1c(Nc2c(C#N)cncc2-c2cc3cc(CN4CCN(CCN(C)C)CC4)ccc3o2)ccc2[nH]ccc12` [Compound 396, 5-[5-({4-[2-(dimethylamino)ethyl]piperazin-1-yl}methyl)-1-benzofuran-2-yl]-4-[(4-methyl-1H-indol-5-yl)amino]nicotinonitrile], the IC50 under setting [1] amounted to 2 nM.

In the case of `Cc1c(Nc2c(C#N)cncc2-c2cc3cc(CN4CCN(c5ccccn5)CC4)ccc3o2)ccc2[nH]ccc12` [Compound 397, 4-[(4-methyl-1H-indol-5-yl)amino]-5-{5-[(4-pyridin-2-ylpiperazin-1-yl)methyl]-1-benzofuran-2-yl}nicotinonitrile], the IC50 under setting [1] turned out to be 13 nM.

On to `Cc1c(Nc2c(C#N)cncc2-c2cc3cc(CNCc4ccccn4)ccc3o2)ccc2[nH]ccc12` [Compound 398, 4-[(4-methyl-1H-indol-5-yl)amino]-5-(5-{[(pyridin-2-ylmethyl)amino]methyl}-1-benzofuran-2-yl)nicotinonitrile], for which the IC50 under setting [1] turned out to be 3 nM.

As for `Cc1c(Nc2c(C#N)cncc2-c2cc3cc(CNCc4cccnc4)ccc3o2)ccc2[nH]ccc12` [Compound 399, 4-[(4-methyl-1H-indol-5-yl)amino]-5-(5-{[(pyridin-3-ylmethyl)amino]methyl}-1-benzofuran-2-yl)nicotinonitrile], under setting [1], the IC50 was found to be 2 nM.

With `Cc1c(Nc2c(C#N)cncc2-c2cc3cc(CNCc4ccncc4)ccc3o2)ccc2[nH]ccc12` [Compound 400, 4-[(4-methyl-1H-indol-5-yl)amino]-5-(5-{[(pyridin-4-ylmethyl)amino]methyl}-1-benzofuran-2-yl)nicotinonitrile], the IC50 under setting [1] is 2 nM.

Consider `Cc1c(Nc2c(C#N)cncc2-c2ccc(CN3CCOCC3)o2)ccc2[nH]ccc12` [Compound 401, 4-[(4-methyl-1H-indol-5-yl)amino]-5-[5-(morpholin-4-ylmethyl)-2-furyl]nicotinonitrile], for which the IC50 under setting [1] came to 8 nM.

On to `Cc1c(Nc2c(C#N)cncc2-c2ccc(CN3CCCCC3)o2)ccc2[nH]ccc12` [Compound 402, 4-[(4-methyl-1H-indol-5-yl)amino]-5-[5-(piperidin-1-ylmethyl)-2-furyl]nicotinonitrile], for which the IC50 under setting [1] turned out to be 41 nM.

Consider `Cc1c(Nc2c(C#N)cncc2-c2ccc(CN3CCC(N4CCCCC4)CC3)o2)ccc2[nH]ccc12` [Compound 403, 5-[5-(1,4′-bipiperidin-1′-ylmethyl)-2-furyl]-4-[(4-methyl-1H-indol-5-yl)amino]nicotinonitrile], for which the IC50 under setting [1] was 5 nM.

Consider `Cc1c(Nc2c(C#N)cncc2-c2ccc(CN3CCC(N4CCCC4)CC3)o2)ccc2[nH]ccc12` [Compound 404, 4-[(4-methyl-1H-indol-5-yl)amino]-5-{5-[(4-pyrrolidin-1-ylpiperidin-1-yl)methyl]-2-furyl}nicotinonitrile], for which the IC50 under setting [1] was 4 nM.

For the molecule `Cc1c(Nc2c(C#N)cncc2-c2ccc(CN3CCC(N4CCOCC4)CC3)o2)ccc2[nH]ccc12` [Compound 405, 4-[(4-methyl-1H-indol-5-yl)amino]-5-{5-[(4-morpholin-4-ylpiperidin-1-yl)methyl]-2-furyl}nicotinonitrile], the IC50 under setting [1] is 9 nM.

Regarding `CCN(CC)Cc1ccc(-c2cncc(C#N)c2Nc2ccc3[nH]ccc3c2C)o1` [Compound 406, 5-{5-[(diethylamino)methyl]-2-furyl}-4-[(4-methyl-1H-indol-5-yl)amino]nicotinonitrile], the IC50 under setting [1] came out at 42 nM.

In the case of `CCCCN(CCCC)Cc1ccc(-c2cncc(C#N)c2Nc2ccc3[nH]ccc3c2C)o1` [Compound 407, 5-{5-[(dibutylamino)methyl]-2-furyl}-4-[(4-methyl-1H-indol-5-yl)amino]nicotinonitrile], under setting [1], the IC50 stood at 20 nM.

For `Cc1c(Nc2c(C#N)cncc2-c2ccc(CNCc3ccccc3)o2)ccc2[nH]ccc12` [Compound 408, 5-{5-[(benzylamino)methyl]-2-furyl}-4-[(4-methyl-1H-indol-5-yl)amino]nicotinonitrile], the IC50 under setting [1] is 11 nM.

Turning to `COc1ccc(-c2cncc(C#N)c2Nc2cc3cc[nH]c3cc2C)cc1OC` [Compound 412, 5-(3,4-dimethoxyphenyl)-4-[(6-methyl-1H-indol-5-yl)amino]nicotinonitrile], the IC50 under setting [1] was determined as 10 nM.

As for `Cc1cc2[nH]ccc2cc1Nc1c(C#N)cncc1-c1cc2ccccc2o1` [Compound 413, 5-(1-benzofuran-2-yl)-4-[(6-methyl-1H-indol-5-yl)amino]nicotinonitrile], the IC50 under setting [1] worked out at 55 nM.

Take `Cc1c(Nc2c(C#N)cncc2-c2ccc(OCCNCCO)cc2)ccc2[nH]ccc12` [Compound 414, 5-(4-{2-[(2-hydroxyethyl)amino]ethoxy}phenyl)-4-[(4-methyl-1H-indol-5-yl)amino]nicotinonitrile]: under setting [1], the IC50 was 4 nM.

Turning to `Cc1c(Nc2c(C#N)cncc2-c2ccc(OCCNCCCO)cc2)ccc2[nH]ccc12` [Compound 415, 5-(4-{2-[(3-hydroxypropyl)amino]ethoxy}phenyl)-4-[(4-methyl-1H-indol-5-yl)amino]nicotinonitrile], the IC50 under setting [1] is 5 nM.

In the case of `CCOCCNCCOc1ccc(-c2cncc(C#N)c2Nc2ccc3[nH]ccc3c2C)cc1` [Compound 416, 5-(4-{2-[(2-ethoxyethyl)amino]ethoxy}phenyl)-4-[(4-methyl-1H-indol-5-yl)amino]nicotinonitrile], under setting [1], the IC50 came out at 6 nM.

Take `Cc1c(Nc2c(C#N)cncc2-c2ccc(OCCNCCN(C)C)cc2)ccc2[nH]ccc12` [Compound 417, 5-[4-(2-{[2-(dimethylamino)ethyl]amino}ethoxy)phenyl]-4-[(4-methyl-1H-indol-5-yl)amino]nicotinonitrile]: the IC50 is 6 nM.

On to `Cc1c(Nc2c(C#N)cncc2-c2ccc(OCCN3CCCC3)cc2)ccc2[nH]ccc12` [Compound 418, 4-[(4-methyl-1H-indol-5-yl)amino]-5-[4-(2-pyrrolidin-1-ylethoxy)phenyl]nicotinonitrile], for which the IC50 under setting [1] is 4 nM.
